Laboratory results reported in patent US8314250B2, “Sultam derivatives” (Hoffmann-La Roche Inc., priority 2009, dated 2012).
Counter-ions that a name gives are not always drawn.

How the values were obtained:
Type in all cases: cell-based
HeLa cells = test: CellTiter-Glo luminescent cell viability (cytotoxicity) assay; conditions: 10 μM test compound, inhibition of luminescence compared to control cells; for inhibition at 10 µM: Homo sapiens, HeLa, 48 h, read-out: Activity (PCT_INHIB @ 10 μM)
Description: Cytotoxicity was assessed using Promega's CellTiter-Glo® luminescent cell viability assay (Promega Corporation, Madison, Wis., USA) as described in Promega Technical Bulletin TB288, revised August 2008. The assay was performed in HeLa cells at a maximum concentration tested of 10 μM of test compound. This assay measures the amount of adenosine triphosphate (ATP) present as a way of quantifying the presence and degree of metabolic activity in cell cultures.
Viable Hela cells were plated at a density of 3000 cells/well in 96 wells in black, clear bottom plates. Cells were allowed to attach to the plate by incubating overnight at 37° C. Test compounds were diluted in DMSO then further diluted in 10% FBS media. Media was removed from the cell plates and 50 μL of the solution was added to each well manually with the exception of the control well, which contained the same volume of 10% FBS media which includes 1% DMSO. Cells were incubated in the presence of compound undisturbed for 48 hours at 37° C. After the 48 hour compound exposure, 50 μL of the pCellTiter Glo® reagent was added. The cell plates were agitated on a shaker for 2 minutes to help lyse the cells. The plate was covered and read for luminescence.
Percent inhibition was calculated as follows: PCT_INHIB=100*[(U−T)/U] Where U represents the Luminescence of wells containing untreated cells and
T represents the Luminescence of wells containing compound-treated cells

[1] = tested on: H196, a small cell lung cancer cell line; test: MTT tetrazolium dye proliferation assay; conditions: H196 cells, 5 days; for IC50: 50% inhibition of cell proliferation; for IC90: 90% inhibition of cell proliferation
Description: Proliferation was evaluated in an adherent cell line by the tetrazolium dye assay according to the procedure of Denizot and Lang (F. Denizot and R. Lang J. Immunol. Methods 1986, 89, 271-277). The cell line used was H196, a small cell lung cancer cell line obtained from the ATCC (ATCC Number CRL-5823™). The cells were grown in RPMI 1640 medium supplemented with 2.5% fetal bovine serum.
Cells were seeded into clear 96 well tissue culture treated plates at 20,000 cells per well. Plates were incubated overnight at 37° C. in a humidified incubator with 5% CO2. The next day, test compounds were serially diluted to three times the final concentration in the appropriate growth medium. 50 μL of a 3× dilution of drug was added per well for a final volume of 150 uL/well. Six concentrations were tested for each compound ranging from 10 μM to 30 nM. […] 50 μL of 0.75% DMSO in growth media was added per well for a final volume of 150 uL/well. The plates were returned to the incubator and, after 5 days, the plates were analyzed as follows: 3-(4,5-dimethylthiazol-2-yl)-2,5-diphenyl-2H-tetrazolium bromide (thiazolyl blue; MTT; Sigma) was added to each well to yield a final concentration of 1.25 mg/mL. Plates were returned to the incubator for 3 hours. The MTT-containing medium was removed and the resulting formazan metabolite was solubilized in 100% ethanol while shaking for 10 minutes at room temperature. Absorbances were read in a plate reader at a wavelength of 570 nm with a 660 nm reference. The concentrations of compounds leading to 50% and 90% inhibition of cell proliferation were determined by using the curve-fitting functionality of Microsoft Excel from plots of the logarithm of the concentration versus percent inhibition. These concentrations represent the IC50 and IC90 values, respectively.

H146 cell line = test: MTS tetrazolium assay (proliferation, non-adherent cell line); conditions: H146 cells, 5 days; for IC50: 50% inhibition of cell proliferation; for IC90: 90% inhibition of cell proliferation
Description: Proliferation was evaluated in a non-adherent cell line using the MTS tetrazolium dye assay according to the procedure of Malich and colleagues (G. Malich et al. Toxicology 1997, 124, 179-192). The cell line used was H146 (ATCC Number HTB-173™). The cells were grown in RPMI 1640 medium supplemented with 2.5% fetal bovine serum.
Cells were seeded into clear 96 well tissue culture treated plates at 20,000 cells per well. Plates were incubated overnight at 37° C. in a humidified incubator with 5% CO2. The next day, test compounds were serially diluted to three times the final concentration in the appropriate growth medium. 50 μL of a 3× dilution of drug was added per well for a final volume of 150 uL/well. […] 50 μL of 0.75% DMSO in growth media was added per well for a final volume of 150 uL/well. The plates were returned to the incubator. After 5 days CellTiter 96® AQueous One Solution (Promega Corporation, Madison, Wis., USA) (25 μL/well) was added to each well and the plates were placed back in the incubator for 2-3 h. The absorbance at 490 nm was measured for each well using a plate reader. The concentrations of compounds leading to 50% and 90% inhibition of cell proliferation were determined by using the curve-fitting functionality of Microsoft Excel from plots of the logarithm of the concentration versus percent inhibition. These concentrations represent the IC50 and IC90 values, respectively.

COc1ccc(Cl)c(CN(Cc2cccc(CN3C(C(=O)N[C@H]4C[C@H]5C[C@@H]([C@@H]4C)C5(C)C)CCS3(=O)=O)c2)[C@H](CN(C)C)CC(C)(C)C)c1F (single isomer, unassigned; epimer 1) [Example 25]
inhibition at 10 µM (HeLa cells): 96% | IC50 [1]: 1.4 µM | IC90 [1]: 1.9 µM | IC50 (H146 cell line): 1.6 µM | IC90 (H146 cell line): 3.1 µM

COc1ccc(Cl)c(CN(Cc2cccc(CN3C(C(=O)N[C@H]4C[C@H]5C[C@@H]([C@@H]4C)C5(C)C)CCS3(=O)=O)c2)[C@H](CN(C)C)CC(C)(C)C)c1F (single isomer, unassigned; epimer 2) [Example 26]
Activity (PCT_INHIB @ 10 μM) (HeLa cells; 48 hours, 10 µM): 97% | IC50 ([1]; NCI-H196, 120 h): 1.3 µM | IC90 ([1]; NCI-H196, 120 h): 1.8 µM | IC50 (H146 cell line): 0.7 µM | IC90 (H146 cell line): 1.2 µM

COc1ccc(Cl)c(CN(Cc2cccc(CN3C(C(=O)N[C@H]4C[C@H]5C[C@@H]([C@@H]4C)C5(C)C)CCS3(=O)=O)c2)[C@@H](Cc2ccc(Cl)cc2)CN(C)C)c1F (stereo partly drawn) [Example 23, 2-[3-({(6-Chloro-2-fluoro-3-methoxy-benzyl)-[(S)-2-(4-chloro-phenyl)-1-dimethylaminomethyl-ethyl]-amino}-methyl)-benzyl]-1,1-dioxo-1λ^6-isothiazolidine-3-carboxylic acid((1S,2S,3S,5R)-2,6,6-trimethyl-bicyclo[3.1.1]hept-3-yl)-amide]
inhibition at 10 µM (HeLa cells): 96%

COc1ccc(Cl)c(CN(Cc2cccc(CN3C(C(=O)N4CCC(c5ccccc5)CC4)CCS3(=O)=O)c2)[C@H](CN(C)C)CC(C)(C)C)c1F (stereo partly drawn) [Example 24, [2-(3-{[(6-Chloro-2-fluoro-3-methoxy-benzyl)-((S)-1-dimethylaminomethyl-3,3-dimethyl-butyl)-amino]-methyl}-benzyl)-1,1-dioxo-1λ^6-isothiazolidin-3-yl]-(4-phenyl-piperidin-1-yl)-methanone]
inhibition at 10 µM (HeLa cells): 96%

COc1ccc(Cl)c(CN(Cc2cccc(CN3C(C(=O)NCc4ccc(Cl)cc4)CCS3(=O)=O)c2)[C@H](CN(C)C)CC(C)(C)C)c1F (stereo partly drawn) [Example 27, 2-(3-{[(6-Chloro-2-fluoro-3-methoxy-benzyl)-((S)-1-dimethylaminomethyl-3,3-dimethyl-butyl)-amino]-methyl}-benzyl)-1,1-dioxo-1λ^6-isothiazolidine-3-carboxylic acid 4-chloro-benzylamide]
inhibition at 10 µM (HeLa cells): 95%

COc1ccc(Cl)c(CN(Cc2cccc(CN3C(C(=O)N[C@H]4CC5CCC4(C)C5(C)C)CCS3(=O)=O)c2)[C@H](CN(C)C)CC(C)(C)C)c1F (stereo partly drawn) [Example 28, 2-(3-{[(6-Chloro-2-fluoro-3-methoxy-benzyl)-((S)-1-dimethylaminomethyl-3,3-dimethyl-butyl)-amino]-methyl}-benzyl)-1,1-dioxo-1λ^6-isothiazolidine-3-carboxylic acid((S)-1,7,7-trimethyl-bicyclo[2.2.1]hept-2-yl)-amide]
inhibition at 10 µM (HeLa cells): 96%

COc1ccc(F)c(F)c1CN(Cc1cccc(CN2C(C(=O)N[C@H]3C[C@H]4C[C@@H]([C@@H]3C)C4(C)C)CCS2(=O)=O)c1)[C@@H](Cc1ccccc1)CN(C)C (stereo partly drawn) [Example 29, 2-(3-{[(2,3-Difluoro-6-methoxy-benzyl)-((S)-1-dimethylaminomethyl-2-phenyl-ethyl)-amino]-methyl}-benzyl)-1,1-dioxo-1λ^6-isothiazolidine-3-carboxylic acid((1S,2S,3S,5R)-2,6,6-trimethyl-bicyclo[3.1.1]hept-3-yl)-amide]
inhibition at 10 µM (HeLa cells): 95%

COc1ccc(Cl)c(CN(Cc2cccc(CN3C(C(=O)NC4C5CC6CC(C5)CC4C6)CCS3(=O)=O)c2)[C@H](CN(C)C)CC(C)(C)C)c1F (stereo partly drawn) [Example 30, 2-(3-{[(6-Chloro-2-fluoro-3-methoxy-benzyl)-((S)-1-dimethylaminomethyl-3,3-dimethyl-butyl)-amino]-methyl}-benzyl)-1,1-dioxo-1λ^6-isothiazolidine-3-carboxylic acid adamantan-2-ylamide]
inhibition at 10 µM (HeLa cells): 96%

COc1ccc(Cl)c(CN(Cc2cccc(CN3C(C(=O)N4CCC(O)(c5ccc(Cl)cc5)CC4)CCS3(=O)=O)c2)[C@H](CN(C)C)CC(C)(C)C)c1F (stereo partly drawn) [Example 32, [2-(3-{[(6-Chloro-2-fluoro-3-methoxy-benzyl)-((S)-1-dimethylaminomethyl-3,3-dimethyl-butyl)-amino]-methyl}-benzyl)-1,1-dioxo-1λ^6-isothiazolidin-3-yl]-[4-(4-chloro-phenyl)-4-hydroxy-piperidin-1-yl]-methanone]
inhibition at 10 µM (HeLa cells): 96%

COc1ccc(Cl)c(CN(Cc2cc(CN3C(C(=O)N[C@H]4C[C@H]5C[C@@H]([C@@H]4C)C5(C)C)CCS3(=O)=O)cc(N(C)C)c2)[C@H](CN(C)C)CC(C)(C)C)c1F (stereo partly drawn) [Example 35, 2-(3-{[(6-Chloro-2-fluoro-3-methoxy-benzyl)-((S)-1-dimethylaminomethyl-3,3-dimethyl-butyl)-amino]-methyl}-5-dimethylamino-benzyl)-1,1-dioxo-1λ^6-isothiazolidine-3-carboxylic acid((1S,2S,3S,5R)-2,6,6-trimethyl-bicyclo[3.1.1]hept-3-yl)-amide, hydrochloride salt]
inhibition at 10 µM (HeLa cells): 86%
